Patent publication US20200031784A1, “OZANIMOD ADDITION SALT CRYSTAL, PREPARATION METHOD, PHARMACEUTICAL COMPOSITION, AND USES” (Solipharma LLC, priority 2017, published 2020)
Where a name gives a salt, the structure may show the parent alone. Read-outs that look alike come from different tables or passages of the source.

Legend:
Assay type in all cases: physicochemical
[1] = Phase stability in aqueous system, slurry for 5 days (Comparative Example 2); details: slurry 5 days
Protocol: The phase stability of crystalline forms of ozanimod salts of Examples 1 to 124 and ozanimod hydrochloride crystalline form of Preparation Example 2 were tested in aqueous system.

[2] = Isothermal adsorption curve (dynamic vapor sorption), weight change; details: in the range of 0% to 50%
Protocol: Dynamic vapor sorption data and isothermal sorption data are collected on TA Instruments Q5000 TGA. A sample of 1 to 10 mg is usually placed in a platinum pan; and the TA software records the change in weight of the sample during relative humidity from 0% to 80% to 0%. Depending on the specifics of the sample, different adsorption and desorption steps are also applied to the sample.

[3] = Water solubility of crystalline ozanimod salt forms (Comparative Example 1)
Protocol: The water solubility of crystalline forms of ozanimod salts of Examples 1 to 124 and ozanimod hydrochloride of Preparation Example 2 were tested.

## CC(C)Oc1ccc(-c2nc(-c3cccc4c3CC[C@@H]4NCCO)no2)cc1C#N.O=C(O)C(O)C(O)C(=O)O [Ozanimod L-tartrate Form 1]
[1]
  Slurry for 5 days in ethanol/water (1:1) (solid state after slurry): Crystalline
  Slurry for 5 days in water (solid state after slurry): Crystalline

## CC(C)Oc1ccc(-c2nc(-c3cccc4c3CC[C@@H]4NCCO)no2)cc1C#N.O=S(=O)(O)c1ccccc1 [Ozanimod besylate Form 1]
[1]
  Slurry for 5 days in ethanol/water (1:1) (solid state after slurry): Crystalline
  Slurry for 5 days in water (solid state after slurry): Crystalline
[2]
  weight change according to the isothermal adsorption curve: 0.05%

## CC(C)Oc1ccc(-c2nc(-c3cccc4c3CCC4NCCO)no2)cc1C#N.O=C(O)CC(O)(CC(=O)O)C(=O)O (stereo not drawn) [Ozanimod citrate Form 1]
[1]
  Slurry for 5 days in ethanol/water (1:1) (solid state after slurry): Crystalline
  Slurry for 5 days in water (solid state after slurry): Crystalline

## CC(C)Oc1ccc(-c2nc(-c3cccc4c3CC[C@@H]4NCCO)no2)cc1C#N.O=P(O)(O)O [Ozanimod dihydrogen phosphate Form 1]
[3]; 25° C.
  25° C. water solubility: 2.54 mg/mL
[3]; 37° C.
  37° C. water solubility: 7.71 mg/mL
[1]
  Slurry for 5 days in ethanol/water (1:1) (solid state after slurry): Crystalline
  Slurry for 5 days in water (solid state after slurry): Crystalline

## CC(C)Oc1ccc(-c2nc(-c3cccc4c3CC[C@@H]4NCCO)no2)cc1C#N.O=C(O)/C=C/C(=O)O [Ozanimod fumarate Form 1]
[3]; 25° C.
  25° C. water solubility: 2.34 mg/mL
[3]; 37° C.
  37° C. water solubility: 4.55 mg/mL
[1]
  Slurry for 5 days in ethanol/water (1:1) (solid state after slurry): Crystalline
  Slurry for 5 days in water (solid state after slurry): Crystalline

## CC(C)Oc1ccc(-c2nc(-c3cccc4c3CC[C@@H]4NCCO)no2)cc1C#N.CC(C)Oc1ccc(-c2nc(-c3cccc4c3CC[C@@H]4NCCO)no2)cc1C#N.O=C(O)C[C@H](O)C(=O)O [Ozanimod hemi-L-malate Form 1]
[3]; 25° C.
  25° C. water solubility: 10.55 mg/mL
[3]; 37° C.
  37° C. water solubility: 22.62 mg/mL
[1]
  Slurry for 5 days in ethanol/water (1:1) (solid state after slurry): Crystalline
  Slurry for 5 days in water (solid state after slurry): Crystalline

## CC(C)Oc1ccc(-c2nc(-c3cccc4c3CCC4NCCO)no2)cc1C#N.CC(C)Oc1ccc(-c2nc(-c3cccc4c3CCC4NCCO)no2)cc1C#N.O=C(O)C=CC(=O)O (stereo not drawn) [Ozanimod hemi-fumarate Form 1]
[1]
  Slurry for 5 days in ethanol/water (1:1) (solid state after slurry): Crystalline
  Slurry for 5 days in water (solid state after slurry): Crystalline

## CC(C)Oc1ccc(-c2nc(-c3cccc4c3CCC4NCCO)no2)cc1C#N.CC(C)Oc1ccc(-c2nc(-c3cccc4c3CCC4NCCO)no2)cc1C#N.O=S(=O)(O)O (stereo not drawn) [Ozanimod hemisulfate Form 1]
[1]
  Slurry for 5 days in ethanol/water (1:1) (solid state after slurry): Crystalline
  Slurry for 5 days in water (solid state after slurry): Crystalline

## Br.CC(C)Oc1ccc(-c2nc(-c3cccc4c3CC[C@@H]4NCCO)no2)cc1C#N [Ozanimod hydrobromide Form 1]
[3]; 25° C.
  25° C. water solubility: 0.78 mg/mL
[3]; 37° C.
  37° C. water solubility: 3.49 mg/mL
[1]
  Slurry for 5 days in ethanol/water (1:1) (solid state after slurry): Crystalline
  Slurry for 5 days in water (solid state after slurry): Crystalline

## CC(C)Oc1ccc(-c2nc(-c3cccc4c3CC[C@@H]4NCCO)no2)cc1C#N [Ozanimod hydrochloride form, reference compound]
[3]; 25° C., read-out: 25° C. water solubility
  solubility: 0.61 mg/mL
[3]; 37° C., read-out: 37° C. water solubility
  solubility: 2.45 mg/mL
[1]
  Slurry for 5 days in ethanol/water (1:1) (solid state after slurry): Weak crystallinity
  Slurry for 5 days in water (solid state after slurry): Amorphous
[2]
  weight change according to the isothermal adsorption curve: 0.14%

## CC(C)Oc1ccc(-c2nc(-c3cccc4c3CCC4NCCO)no2)cc1C#N.O=S(=O)(O)O (stereo not drawn) [Ozanimod hydrosulfate Form 1]
[1]
  Slurry for 5 days in ethanol/water (1:1) (solid state after slurry): Crystalline
  Slurry for 5 days in water (solid state after slurry): Crystalline

## CC(C)Oc1ccc(-c2nc(-c3cccc4c3CC[C@@H]4NCCO)no2)cc1C#N.O=C(O)/C=C\C(=O)O [Ozanimod maleate Form 1]
[3]; 25° C.
  25° C. water solubility: 1.20 mg/mL
[3]; 37° C.
  37° C. water solubility: 5.29 mg/mL
[1]
  Slurry for 5 days in ethanol/water (1:1) (solid state after slurry): Crystalline
  Slurry for 5 days in water (solid state after slurry): Crystalline

## CC(C)Oc1ccc(-c2nc(-c3cccc4c3CC[C@@H]4NCCO)no2)cc1C#N.CS(=O)(=O)O [Ozanimod mesylate Form 1]
[3]; 25° C.
  25° C. water solubility: 17.60 mg/mL
[3]; 37° C.
  37° C. water solubility: 53.82 mg/mL
[1]
  Slurry for 5 days in ethanol/water (1:1) (solid state after slurry): Crystalline
  Slurry for 5 days in water (solid state after slurry): Crystalline
